Data on eleven molecules can be found in ChEMBL document CHEMBL1201862, “PubChem BioAssay data set” (2004).

Assay [1] is described as follows: A549 cell cytotoxicity, dose response, cytotoxicity control, plate reader, cherry-pick, antagonist series (AID 743412). It is filed as functional, cell-based.
Assay [2] in a line: viability loss in HEK293 cells – cell-based, plate reader, cherry-picked samples, cytotoxicity control, dose response (AID 743446). It is filed as functional.
Assay [3] is described as follows: toxicity toward HepG2 liver cells – cell-based, plate reader, cherry-pick, antagonist series, cytotoxicity control, dose response (AID 743416). It is filed as functional.
Assay [4] can be described thus: blockade of melanocortin 4 receptor signaling – cell-based, plate reader, cherry pick, counter-screen for LGR2 antagonist project, dose response (AID 743444).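 Note: transfected HEK 293 cells stimulated with alpha-MSH peptide; potency of inhibitors of the alpha-MSH evoked signal.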 It is filed as functional. For orientation: A counterscreen serves to expose hits that act by an unwanted route or on another target.
A short description of assay [5]: blockers of bursicon-stimulated LGR2 cAMP reporter – cell-based, HEK293, CRE-luciferase reporter, cherry pick, set 2, dose response (AID 743343).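 Note: transfected cells were stimulated with diluted bursicon conditioned medium after compound addition.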 Type of assay: functional.
Assay [6] deals with T1, Protein skinhead-1 (Caenorhabditis elegans, UniProt P34707).
T1 sequence (P34707 whole entry): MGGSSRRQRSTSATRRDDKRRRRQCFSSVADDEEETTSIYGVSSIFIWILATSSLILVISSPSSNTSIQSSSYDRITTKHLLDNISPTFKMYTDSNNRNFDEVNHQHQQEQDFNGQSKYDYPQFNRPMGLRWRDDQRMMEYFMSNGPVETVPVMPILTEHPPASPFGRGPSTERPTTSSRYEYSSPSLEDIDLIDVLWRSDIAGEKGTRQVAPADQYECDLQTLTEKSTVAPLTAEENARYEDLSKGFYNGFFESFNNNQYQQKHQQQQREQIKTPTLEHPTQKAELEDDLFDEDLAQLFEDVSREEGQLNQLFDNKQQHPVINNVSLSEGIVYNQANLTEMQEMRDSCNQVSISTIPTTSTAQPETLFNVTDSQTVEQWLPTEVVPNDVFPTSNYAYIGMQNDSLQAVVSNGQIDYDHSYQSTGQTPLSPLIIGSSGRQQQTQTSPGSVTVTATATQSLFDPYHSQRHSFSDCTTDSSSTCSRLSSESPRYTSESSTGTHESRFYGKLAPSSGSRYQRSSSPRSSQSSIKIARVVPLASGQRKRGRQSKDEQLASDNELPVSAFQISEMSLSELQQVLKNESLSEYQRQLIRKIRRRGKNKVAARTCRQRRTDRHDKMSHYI
Type of assay: functional.

The target in assay [7] is T2, Sentrin-specific protease 8 (Homo sapiens, UniProt Q96LD8).
T2 sequence (Q96LD8 whole entry): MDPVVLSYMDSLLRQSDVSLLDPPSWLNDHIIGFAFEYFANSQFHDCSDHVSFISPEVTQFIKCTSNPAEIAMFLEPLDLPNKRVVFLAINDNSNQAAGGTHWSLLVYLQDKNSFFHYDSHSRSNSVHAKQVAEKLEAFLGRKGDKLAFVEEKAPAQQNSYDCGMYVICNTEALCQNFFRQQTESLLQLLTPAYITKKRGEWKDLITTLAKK
It is filed as functional.

For assay [8], the target named is T2, Sentrin-specific protease 8. It is filed as functional. This is another data set of the same source.
In assay [9] the target is T3, DNA repair and recombination protein RAD54-like (Homo sapiens, UniProt Q92698).
T3 sequence (Q92698 whole entry): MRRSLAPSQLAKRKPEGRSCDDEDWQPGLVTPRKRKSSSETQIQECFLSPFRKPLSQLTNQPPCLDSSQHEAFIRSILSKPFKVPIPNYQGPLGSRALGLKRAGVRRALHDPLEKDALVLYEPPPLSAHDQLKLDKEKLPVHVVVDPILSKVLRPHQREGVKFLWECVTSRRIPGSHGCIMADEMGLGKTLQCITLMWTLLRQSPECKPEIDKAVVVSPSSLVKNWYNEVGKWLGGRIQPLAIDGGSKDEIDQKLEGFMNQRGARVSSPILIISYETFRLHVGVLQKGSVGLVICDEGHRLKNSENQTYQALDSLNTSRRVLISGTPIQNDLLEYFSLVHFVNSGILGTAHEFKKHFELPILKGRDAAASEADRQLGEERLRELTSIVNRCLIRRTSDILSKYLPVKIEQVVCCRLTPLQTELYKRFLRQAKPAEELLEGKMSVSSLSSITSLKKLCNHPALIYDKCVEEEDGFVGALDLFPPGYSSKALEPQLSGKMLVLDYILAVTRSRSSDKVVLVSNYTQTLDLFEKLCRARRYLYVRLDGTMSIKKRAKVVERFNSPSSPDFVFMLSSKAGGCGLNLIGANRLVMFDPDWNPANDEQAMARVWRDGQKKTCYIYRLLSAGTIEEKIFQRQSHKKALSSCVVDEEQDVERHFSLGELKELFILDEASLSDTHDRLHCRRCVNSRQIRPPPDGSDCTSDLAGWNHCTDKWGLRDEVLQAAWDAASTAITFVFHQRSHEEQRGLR
The assay is described as follows: RAD54 Holliday junction migration blockers – biochemical, fluorescence, cherry-picked samples, dose series, confirmation (AID 651657). Type of assay: functional.

Assay [10] concerns the target T4, Microphthalmia-associated transcription factor (Homo sapiens, UniProt O75030).
T4 sequence (O75030 whole entry): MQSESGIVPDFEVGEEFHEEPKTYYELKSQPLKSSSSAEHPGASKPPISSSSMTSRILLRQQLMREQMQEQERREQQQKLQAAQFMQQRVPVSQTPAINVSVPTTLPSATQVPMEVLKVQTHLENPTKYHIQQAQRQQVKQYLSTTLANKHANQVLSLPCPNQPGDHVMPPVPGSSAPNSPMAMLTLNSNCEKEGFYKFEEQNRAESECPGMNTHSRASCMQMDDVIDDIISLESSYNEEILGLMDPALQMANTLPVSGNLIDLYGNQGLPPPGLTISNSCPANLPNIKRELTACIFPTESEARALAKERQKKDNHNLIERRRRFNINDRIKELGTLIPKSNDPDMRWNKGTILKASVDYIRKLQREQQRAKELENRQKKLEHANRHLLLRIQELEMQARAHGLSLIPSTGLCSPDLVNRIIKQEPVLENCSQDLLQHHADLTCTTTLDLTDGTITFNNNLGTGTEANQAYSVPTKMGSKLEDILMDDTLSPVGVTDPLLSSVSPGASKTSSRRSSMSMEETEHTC
In words: reducers of TRPM1 reporter luminescence, concentration series – cell-based, SK-MEL-5, cherry-picked, set 3, MITF inhibitor project, dose response (AID 493073).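 Note: SK-MEL-5 melanoma cells with luciferase driven by the MITF target TRPM1 promoter.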 Type of assay: functional.

Assay [11] addresses T5, Protein RecA (Mycobacterium tuberculosis, UniProt P9WHJ3).
T5 sequence (P9WHJ3 whole entry): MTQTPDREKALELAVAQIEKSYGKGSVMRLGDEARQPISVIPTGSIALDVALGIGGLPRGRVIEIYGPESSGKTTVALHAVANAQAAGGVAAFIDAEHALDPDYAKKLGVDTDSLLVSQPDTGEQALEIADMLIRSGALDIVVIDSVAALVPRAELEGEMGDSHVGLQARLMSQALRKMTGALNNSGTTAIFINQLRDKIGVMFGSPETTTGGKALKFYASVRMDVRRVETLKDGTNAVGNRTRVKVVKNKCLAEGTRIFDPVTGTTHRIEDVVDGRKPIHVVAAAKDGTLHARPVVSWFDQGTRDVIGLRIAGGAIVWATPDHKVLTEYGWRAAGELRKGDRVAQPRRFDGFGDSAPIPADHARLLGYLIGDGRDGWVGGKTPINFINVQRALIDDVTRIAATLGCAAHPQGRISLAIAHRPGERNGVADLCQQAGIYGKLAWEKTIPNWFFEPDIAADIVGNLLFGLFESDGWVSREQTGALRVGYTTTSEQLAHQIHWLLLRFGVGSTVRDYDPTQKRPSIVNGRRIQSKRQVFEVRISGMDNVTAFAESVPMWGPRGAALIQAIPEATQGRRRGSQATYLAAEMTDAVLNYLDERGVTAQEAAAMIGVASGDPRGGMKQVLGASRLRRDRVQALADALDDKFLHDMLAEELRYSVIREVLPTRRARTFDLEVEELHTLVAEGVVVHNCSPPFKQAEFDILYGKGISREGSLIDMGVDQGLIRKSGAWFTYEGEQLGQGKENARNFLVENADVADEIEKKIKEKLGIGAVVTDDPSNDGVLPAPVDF
In words: Fluorescence Cell-Free Homogeneous Dose Retest to Identify Inhibitors of RecA-Intein Splicing Activity. [Related pubchem assays (depositor defined):AID2097, AID2223, AID489010, AID492950]. It is filed as functional.

The target in assay [12] is T6, Replicative DNA helicase DnaB (Mycobacterium tuberculosis, UniProt P9WMR3).
T6 sequence (P9WMR3 whole entry): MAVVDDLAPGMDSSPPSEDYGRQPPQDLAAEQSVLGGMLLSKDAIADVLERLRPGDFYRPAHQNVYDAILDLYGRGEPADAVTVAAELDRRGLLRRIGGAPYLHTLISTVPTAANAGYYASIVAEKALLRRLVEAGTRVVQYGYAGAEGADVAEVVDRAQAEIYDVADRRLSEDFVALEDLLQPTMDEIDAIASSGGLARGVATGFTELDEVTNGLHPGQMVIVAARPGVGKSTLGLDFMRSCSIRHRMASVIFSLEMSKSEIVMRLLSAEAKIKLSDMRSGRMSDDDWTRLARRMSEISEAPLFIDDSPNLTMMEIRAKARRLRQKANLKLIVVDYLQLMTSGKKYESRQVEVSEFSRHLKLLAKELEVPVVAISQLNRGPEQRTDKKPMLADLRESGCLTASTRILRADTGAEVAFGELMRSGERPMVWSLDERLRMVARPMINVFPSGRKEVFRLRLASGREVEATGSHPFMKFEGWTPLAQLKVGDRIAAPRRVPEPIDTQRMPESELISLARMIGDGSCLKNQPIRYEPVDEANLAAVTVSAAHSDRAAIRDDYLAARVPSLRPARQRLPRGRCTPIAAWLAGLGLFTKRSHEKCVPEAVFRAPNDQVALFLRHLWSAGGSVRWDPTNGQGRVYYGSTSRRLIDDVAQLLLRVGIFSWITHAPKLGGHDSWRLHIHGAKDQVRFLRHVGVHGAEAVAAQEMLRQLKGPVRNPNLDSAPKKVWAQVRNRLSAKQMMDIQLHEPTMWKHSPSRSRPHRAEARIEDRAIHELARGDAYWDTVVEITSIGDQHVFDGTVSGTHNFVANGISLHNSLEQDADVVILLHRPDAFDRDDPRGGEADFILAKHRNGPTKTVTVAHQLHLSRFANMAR
The assay is described as follows: DnaB intein splicing inhibitors, dose response, biochemical, cell-free fluorescence (AID 449749). Type of assay: functional.

Assay [13] in a line: viability of HCT116 lacking mutant beta-catenin – cell-based, human colon tumor, dose response (AID 1045).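 Note: HCT116 colon tumor cells with beta catenin knocked out; cells exposed to compound for 60 hours.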 It is filed as functional.
A short description of assay [14]: viability of PTEN-deleted HCT116 cells – cell-based, HCT116 PTEN knockout, dose response (AID 1047).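 Note: HCT116 colon tumor cells with PTEN knocked out; cells exposed to compound for 60 hours before readout; potency for loss of cell viability measured by luminescence.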 Type of assay: functional.

Molecules are shown by their SMILES. Active and inactive are the calls of the source.

As a reminder, the AC50 is the concentration at which the activity in the assay is half-maximal. In the case of `C[C@@H]1CN([C@H](C)CO)C(=O)Cc2cc(NC(=O)CCC(F)(F)F)ccc2O[C@@H]1CN(C)CC1CCCCC1`, the AC50 was 47.9 µM (active) in assay [1], > 52 µM (inactive) in assay [2] and > 52 µM (inactive) in assay [3].
For `C[C@@H]1CN([C@H](C)CO)C(=O)c2cccc(NC(=O)Nc3ccc(C(F)(F)F)cc3)c2O[C@@H]1CN(C)CC1CCCCC1`, the AC50 in assay [4] is 7.5 µM (active); in assay [1] it was 7.8 µM (active); in assay [2], 14 µM (active); in [3] it was 9.17 µM (active); in [5] it was 21.7 µM (active).
One may read the IC50 as the concentration that inhibits the measured activity by half. Turning to `COC(=O)CCCC1=CC2=CC(=O)C(C)(OC(=O)c3cccs3)C(=O)C2=CN1CC(C)C` (centres undefined), the IC50 was > 100 µM (inactive) in assay [6], 7.62 µM (active) in [7] and 11.1 µM (active) in [8].
As to `COC/C=C/C1=CC2=CC(=O)C(C)(OC(=O)c3cnc4ccccc4n3)C(=O)C2=CN1CCCCO` (centres undefined), the IC50 in assay [7] is 6.81 µM (active); in assay [8], 17.6 µM (active).
In the case of `Cn1c2ccc(F)cc2c2ncn(CCCN(CCO)CCO)c(=O)c21`, the AC50 in [9] was 28 µM (active).
The EC50 is the concentration at which the effect is half-maximal. Regarding `Cn1c(=O)c([N+](=O)[O-])c(-n2ccnc2)c2ccccc21`, the AC50 in assay [10] was 6.6 µM (active); in assay [12], 6.67 µM (active). Further, in assay [11], the EC50 was 6.43 µM (active).
For `O=[N+]([O-])c1ccc(C=NN2CCOCC2)s1`, the IC50 in [7] was 49 µM (active); in assay [8], 31.9 µM (active).
`CCN(CC)CCCNc1nc2cc(OC)c(OC)cc2c2nc(-c3cccnc3)nn12`: the EC50 in assay [13] was 7.33 µM (active); in assay [14], 8.62 µM (active). Further, the AC50 in assay [9] is 2.15 µM (active).
For `Cc1n[nH]c(O)c1C(c1cc(Br)ccc1O)c1c(C)n[nH]c1O`, the EC50 in assay [11] was 0.275 µM (active). The IC50 in [7] was 34 µM (active); in assay [8], 23 µM (active). Besides, the AC50 in [12] is 0.347 µM (active).
For `CC1(OC(=O)CCc2ccccc2)C(=O)C=C2C=C3CCCN3C=C2C1=O` (centres undefined), the figures for the IC50 in assay [7] and in assay [8] were 12.1 µM (active) and 18.1 µM (active), respectively.
As for `CCN(CC)CCn1c2ccc(F)cc2c2nc(C)sc21`, in assay [9], the AC50 is 20.9 µM (active).
